Reference: the Bradley open melting point set (2014)
Values joined by “and” are separate entries in the source; they are usually repeats but may differ in a detail not shown here. Identical values can stand only once.

Going from `Clc1cccc(Cl)c1` [1,3-dichlorobenzene] to `Clc1ccc(Cl)cc1` [1,4-Dichlorobenzene], the melting point rises from -25 °C to 55 °C.

Going from `Cn1ccc(=O)n(C)c1=O` [1,3-dimethyluracil] to `O=C1CC(=O)c2ccccc21` [1,3-indanedione], the melting point rises from 121 °C to 130 °C.

Going from `OCCCO` [1,3-propanediol] to `OCCCCO` [1,4-Butanediol], the melting point rises from -26 °C to 20.1 °C.

Going from `C1CSCCSCCNCCSCCSCCN1` [1,4,10,13-tetrathia-7,16-diazacyclooctadecane] to `Cc1ccccc1N1CCNCC1` [1-(o-tolyl)piperazine], the melting point falls from 130 °C to 47 °C.

Going from `Brc1ccc(Br)cc1` [1,4-Dibromobenzene] to `Cc1ccc(Cl)cc1` [1-Chloro-4-methylbenzene], the melting point falls from 88 °C to 7.5 °C.

First: O=C1Cc2ccccc2CO1 [1,4-Dihydro-3H-isochromen-3-on]
Second: O=C1C=CC(=O)c2ccccc21 [1,4-naphthoquinone]
The melting point of the first is lower: 83 °C for the first, 122 °C for the second.

First: COc1ccc(OC)cc1 [1,4-Dimethoxybenzene]
Second: COc1ccc2cc(C(C)O)ccc2c1 (centres undefined) [1-(6-methoxy-2-naphthyl)ethanol]
The melting point of the first is lower: 58 °C for the first, 112 °C for the second.

First: O=Cc1ccc2c(c1)OCCO2 [1,4-benzodioxane-6-carboxaldehyde]
Second: C=Cc1ccc(C)cc1 [1-Methyl-4-vinylbenzene]
The melting point of the first is higher: 50 °C for the first, -72.5 °C for the second.

Going from `c1ccc(CCc2ccc(CCc3ccccc3)cc2)cc1` [1,4-bis(2-phenylethyl)benzene] to `O=C(CCCc1ccccc1)c1ccccc1` [1,4-diphenyl-1-butanone], the melting point falls from 89 °C to 55 °C.

Compared with `Cc1nc(-c2ccc(-c3nc(C)c(-c4ccccc4)o3)cc2)oc1-c1ccccc1` [1,4-bis(4-methyl-5-phenyloxazol-2-yl)benzene], `Cc1ccccc1CNC(=S)Nc1ccccc1` [1-(2-methylbenzyl)-3-phenylthiourea] is lower in melting point: 234 °C for the first, 163 °C for the second.

First: BrC(Br)c1ccc(C(Br)Br)cc1 [1,4-bis(dibromomethyl)benzene]
Second: NCc1ccc2c(Br)cccc2c1 [1-(5-bromonaphthalen-2-yl)methanamine]
The melting point of the first is higher: 168 °C for the first, 112 °C for the second.

Compared with `OCCCCO` [1,4-butanediol], `ClCCCCCl` [1,4-dichlorobutane] is lower in melting point: 20 °C for the first, -38 °C for the second.

First: BrCCCCCBr [1,5-dibromopentane]
Second: BrCCCCCCBr [1,6-dibromohexane]
The melting point of the first is lower: -40 °C for the first, -2 °C for the second.

First: ClCCCCCCl [1,5-dichloropentane]
Second: ClCCOCCCl [1-Chloro-2-(2-chloroethoxy)ethane]
The melting point of the first is lower: -72 °C for the first, -47 °C for the second.

Compared with `O=[N+]([O-])c1cc([N+](=O)[O-])c(F)cc1F` [1,5-difluoro-2,4-dinitrobenzene], `Cn1cc([N+](=O)[O-])c(O)nc1=O` [1-Methyl-5-nitropyrimidine-2,4(1H,3H)-dione] is higher in melting point: 74 °C for the first, 269 °C for the second.

Compared with `O=C=NCCCCCCN=C=O` [1,6-Diisocyanatohexane], `N#CCCCCCCC#N` [1,6-dicyanohexane] is higher in melting point: -55 °C for the first, -3 °C for the second.

Going from `CC12CCC(CC1=O)C2(C)C` (centres undefined) [1,7,7-Trimethylbicyclo[2.2.1]heptan-2-one] to `CN1CCCC1=O` [1-Methylpyrrolidin-2-one], the melting point falls from 177 °C to -23 °C.

Going from `Oc1ccc2cccc(O)c2c1` [1,7-dihydroxynaphthalene] to `O=C(O)c1cccc2c1nnn2Cc1ccccc1` [1-Benzyl-1H-benzotriazole-4-carboxylic acid], the melting point rises from 182 °C to 221 °C.

Compared with `BrCCCCCCCCBr` [1,8-dibromooctane], `CCCCCOCCCCC` [1-(Pentyloxy)pentane] is lower in melting point: 16 °C for the first, -69 °C for the second.

Compared with `O=C(/C=C/C=C/c1ccccc1)/C=C/C=C/c1ccccc1` [1,9-diphenyl-1,3,6,8-nonatetraen-5-one], `O=C(/C=C/c1ccccc1)n1ccnc1` [1-(trans-cinnamoyl)imidazole] is lower in melting point: 142 °C for the first, 130 °C for the second.

Going from `CC(=O)c1ccccc1[N+](=O)[O-]` [1-(2-Nitrophenyl)ethanone] to `Cc1ccccc1[N+](=O)[O-]` [1-Methyl-2-nitrobenzene], the melting point falls from 23 °C to -10 °C.

First: Cc1ccc(N2C(=O)C=CC2=O)cc1Cl [1-(3-Chloro-4-methylphenyl)-1H-pyrrole-2,5-dione]
Second: COc1ccc(Cl)c(Cl)c1Cl [1-Methoxy-2,3,4-trichlorobenzene]
The melting point of the first is higher: 140 °C for the first, 70 °C for the second.

Compared with `CC(=O)c1cccc([N+](=O)[O-])c1` [1-(3-Nitrophenyl)ethanone], `CC(=O)c1ccccc1` [1-Phenylethanone] is lower in melting point: 81 °C for the first, 19 °C for the second.

First: O=[N+]([O-])c1ccc(OCC(O)CO)cc1 (centres undefined) [1-(4-nitrophenyl)glycerol]
Second: CC(O)c1c(F)c(F)c(F)c(F)c1F (centres undefined) [1-(pentafluorophenyl)ethanol]
The melting point of the first is higher: 96 °C for the first, 33 °C for the second.

First: CC(N1CCOCC1)S(=O)(=O)O (centres undefined) [1-(Morpholin-4-yl)ethanesulfonic acid]
Second: C=C(F)Cl [1-Chloro-1-fluoroethene]
The melting point of the first is higher: 243 °C for the first, -169 °C for the second.

Going from `C=CCNC(N)=S` [1-Allylthiourea] to `CCCCl` [1-Chloropropane], the melting point falls from 71 °C to -122 °C.

With `CCCCOCC` [1-Ethoxybutane] the melting point was -103 °C.

For `Brc1ccc(Br)cc1` [1,4-dibromobenzene], the melting point was 87.3 °C and 87 °C and 88 °C.
